Experimental data reported in US20020193320A1, “C-2 modified erythromycin derivatives” (priority 1999, published 2002).

Tests used:
Test in all cases: In vitro antibacterial activity, agar dilution MIC
Format in all cases: cell-based
[1] = system: Staphylococcus aureus A-5177; design: unit not given here; conditions: code BB, BHI agar, 35-37° C., 20 to 24 hours
Procedure: (§1) Representative compounds of the present invention were assayed in vitro for antibacterial activity as follows: Twelve petri dishes containing successive aqueous dilutions of the test compound mixed with 10 mL of sterilized Brain Heart Infusion (BHI) agar (Difco 0418-01-5) were prepared. Each plate was inoculated with 1:100 (or 1:10 for slow-growing strains, such as Micrococcus and Streptococcus) dilutions of up to 32 different microorganisms, using a Steers replicator block. The inoculated plates were incubated at 35-37° C. for 20 to 24 hours. In addition, a control plate, using BHI agar containing no test compound, was prepared and incubated at the beginning and end of each test.
(§2) An additional plate containing a compound having known susceptibility patterns for the organisms being tested and belonging to the same antibiotic class as the test compound was also prepared and incubated as a further control, as well as to provide test-to-test comparability.
(§3) After incubation, each plate was visually inspected. The minimum inhibitory concentration (MIC) was defined as the lowest concentration of drug yielding no growth, a slight haze, or sparsely isolated colonies on the inoculum spot as compared to the growth control.

[2] = system: Streptococcus pyogenes PIU 2548; design: unit not given here; conditions: code NN, BHI agar, 35-37° C., 20 to 24 hours
Procedure: as §1, §2, §3

Escherichia coli JUHL = system: Escherichia coli JUHL; design: unit not given here; conditions: code QQ, BHI agar, 35-37° C., 20 to 24 hours
Procedure: as §1, §2, §3

[3] = system: Streptococcus bovis A-5169; design: unit not given here; conditions: code JJ, BHI agar, 35-37° C., 20 to 24 hours
Procedure: as §1, §2, §3

[4] = system: Nocardia Asteroides ATCC 99700; design: unit not given here; conditions: code VV, BHI agar, 35-37° C., 20 to 24 hours
Procedure: as §1, §2, §3

[5] = system: Streptococcus agalactiae CMX 508; design: unit not given here; conditions: code KK, BHI agar, 35-37° C., 20 to 24 hours
Procedure: as §1, §2, §3

[6] = system: Mycobacterium smegmatis ATCC 114; design: unit not given here; conditions: code UU, BHI agar, 35-37° C., 20 to 24 hours
Procedure: as §1, §2, §3

[7] = system: Staphylococcus aureus ATCC 6538P; design: unit not given here; conditions: code AA, BHI agar, 35-37° C., 20 to 24 hours
Procedure: as §1, §2, §3

[8] = system: Staphylococcus epidermidis 3519; design: unit not given here; conditions: code HH, BHI agar, 35-37° C., 20 to 24 hours
Procedure: as §1, §2, §3

Candida albicans CCH 442 = system: Candida albicans CCH 442; design: unit not given here; conditions: code TT, BHI agar, 35-37° C., 20 to 24 hours
Procedure: as §1, §2, §3

[9] = system: Enterococcus faecium ATCC X043; design: unit not given here; conditions: code II, BHI agar, 35-37° C., 20 to 24 hours
Procedure: as §1, §2, §3

[10] = system: Staphylococcus aureus NCTC 10649M; design: unit not given here; conditions: code EE, BHI agar, 35-37° C., 20 to 24 hours
Procedure: as §1, §2, §3

[11] = system: Staphylococcus aureus CMX 642A; design: unit not given here; conditions: code DD, BHI agar, 35-37° C., 20 to 24 hours
Procedure: as §1, §2, §3

[12] = system: Micrococcus luteus ATCC 9341; design: unit not given here; conditions: code OO, BHI agar, 35-37° C., 20 to 24 hours
Procedure: as §1, §2, §3

Escherichia coli DC-2 = system: Escherichia coli DC-2; design: unit not given here; conditions: code SS, BHI agar, 35-37° C., 20 to 24 hours
Procedure: as §1, §2, §3

[13] = system: Staphylococcus aureus A-5278; design: unit not given here; conditions: code CC, BHI agar, 35-37° C., 20 to 24 hours
Procedure: as §1, §2, §3

[14] = system: Streptococcus pyogenes 930; design: unit not given here; conditions: code MM, BHI agar, 35-37° C., 20 to 24 hours
Procedure: as §1, §2, §3

[15] = system: Staphylococcus aureus CMX 553; design: unit not given here; conditions: code FF, BHI agar, 35-37° C., 20 to 24 hours
Procedure: as §1, §2, §3

Escherichia coli SS = system: Escherichia coli SS; design: unit not given here; conditions: code RR, BHI agar, 35-37° C., 20 to 24 hours
Procedure: as §1, §2, §3

[16] = system: Staphylococcus aureus 1775; design: unit not given here; conditions: code GG, BHI agar, 35-37° C., 20 to 24 hours
Procedure: as §1, §2, §3

[17] = system: Haemophilis Influenzae DILL AMP R; conditions: code WW, 35-37° C., 20 to 24 hours
Procedure: as §1, §2, §3

[18] = system: Streptococcus Pneumonia 5649; conditions: code ZZA (code list: ZA), 35-37° C., 20 to 24 hours
Procedure: as §1, §2, §3

[19] = system: Streptococcus Pneumonia 5979; conditions: code ZZ, 35-37° C., 20 to 24 hours
Procedure: as §1, §2, §3

[20] = system: Streptococcus pyogenes EES61; conditions: code LL, BHI agar, 35-37° C., 20 to 24 hours
Procedure: as §1, §2, §3

[21] = system: Streptococcus Pneumonia GYR 1171; conditions: code YY, 35-37° C., 20 to 24 hours
Procedure: as §1, §2, §3

[22] = system: Streptococcus Pneumonia ATCC 6303; conditions: code XX, 35-37° C., 20 to 24 hours
Procedure: as §1, §2, §3

[23] = system: Micrococcus luteus ATCC 4698; conditions: code PP, BHI agar, 35-37° C., 20 to 24 hours
Procedure: as §1, §2, §3

| Molecule | Antibacterial Activity (MIC) [1] | Antibacterial Activity (MIC) [2] | Antibacterial Activity (MIC) (Escherichia coli JUHL) | Antibacterial Activity (MIC) [3] | Antibacterial Activity (MIC) [4] | Antibacterial Activity (MIC) [5] | Antibacterial Activity (MIC) [6] | Antibacterial Activity (MIC) [7] | Antibacterial Activity (MIC) [8] | Antibacterial Activity (MIC) (Candida albicans CCH 442) | Antibacterial Activity (MIC) [9] | Antibacterial Activity (MIC) [10] | Antibacterial Activity (MIC) [11] | Antibacterial Activity (MIC) [12] | Antibacterial Activity (MIC) (Escherichia coli DC-2) | Antibacterial Activity (MIC) [13] | Antibacterial Activity (MIC) [14] | Antibacterial Activity (MIC) [15] | Antibacterial Activity (MIC) (Escherichia coli SS) | Antibacterial Activity (MIC) [16] | also measured |
| --- | --- | --- | --- | --- | --- | --- | --- | --- | --- | --- | --- | --- | --- | --- | --- | --- | --- | --- | --- | --- | --- |
| C=CCC1(C)C(=O)OC(CC)C2(C)OC(=O)NC2C(C)C(=O)C(C)CC(C)(OCC=Cc2cnc3ccccc3c2)C(OC2OC(C)CC(N(C)C)C2O)C(C)C1=O (stereo not drawn) [Example 4, Compound of formula (II): R^a is —CH2CH═CH—(3-quinolinyl), R^b is H, Y and Z together are O, T is —NH—, R is —CH2CH═CH2] | 0.39 | 0.78 | >100 | 0.05 | 0.1 | 0.2 | 3.1 | 0.78 | 0.39 | >100 | 0.2 | 0.78 | 0.78 | 0.1 | >100 | >100 | 12.5 | 0.39 | 3.1 | >100 | Antibacterial Activity (MIC) [17]: 16; Antibacterial Activity (MIC) [18]: 2; Antibacterial Activity (MIC) [19]: 64; Antibacterial Activity (MIC) [20]: 0.1; Antibacterial Activity (MIC) [21]: 0.25; Antibacterial Activity (MIC) [22]: 0.25; Antibacterial Activity (MIC) [23]: 0.78 |
| CCC1OC(=O)C(C)(O)C(=O)C(C)C(OC2OC(C)CC(N(C)C)C2O)C(C)(OCC=Cc2cnc3ccccc3c2)CC(C)C(=O)C(C)C2NC(=O)OC12C (stereo not drawn) [Example 8, Compound of formula (II): R^a is —CH2CH═CH—(3-quinolinyl), R^b is H, Y and Z together are O, T is —NH—, R is —OH,] | 0.39 | 0.39 | >100 | 0.02 | 0.39 | 0.01 | 3.1 | 0.39 | 0.39 | >100 | 0.2 | 0.78 | 0.39 | 0.02 | >100 | >100 | 50 | 0.78 | 0.2 | >100 | Antibacterial Activity (MIC) [17]: 16; Antibacterial Activity (MIC) [18]: 0.5; Antibacterial Activity (MIC) [19]: 128; Antibacterial Activity (MIC) [20]: 0.02; Antibacterial Activity (MIC) [21]: 0.03; Antibacterial Activity (MIC) [22]: 0.03; Antibacterial Activity (MIC) [23]: 0.2 |
| C#CCOC1(C)CC(C)C(=O)C(C)C2NC(=O)OC2(C)C(CC)OC(=O)C(C)(CC=Cc2ccccc2)C(=O)C(C)C1OC1OC(C)CC(N(C)C)C1O (stereo not drawn) [Example 9, Compound of formula (II): R^a is —CH2C≡CH, R^b is H, Y and Z together are O, T is —NH—, R is —CH2CH≡CH—(phenyl)] | 3.1 | 3.1 | >100 | 0.78 | 1.56 | 1.56 | 12.5 | 3.1 | 6.2 | >100 | 3.1 | 12.5 | 3.1 | 1.56 | >100 | >100 | 50 | 3.1 | 6.2 | 100 | Antibacterial Activity (MIC) [17]: >64; Antibacterial Activity (MIC) [18]: 8; Antibacterial Activity (MIC) [19]: 64; Antibacterial Activity (MIC) [20]: 1.56; Antibacterial Activity (MIC) [21]: 1; Antibacterial Activity (MIC) [22]: 1; Antibacterial Activity (MIC) [23]: 3.1 |
| Compound of formula (II): R^a is CH3, R^b is H, Y and Z together are O, T is —N(W(R^g)-, W is —(CH2)p-, p is 4, R^g is phenyl, R is —OH [Example 2] | 1.56 | 0.39 | >100 | 0.2 | 3.1 | 0.2 | 3.1 | 1.56 | 3.1 | 100 | 0.39 | 1.56 | 3.1 | 0.39 | >100 | 100 | 25 | 1.56 | 6.2 | 100 | Antibacterial Activity (MIC) ([17]; unit assumed): 64 µg/mL; Antibacterial Activity (MIC) ([18]; unit assumed): 1 µg/mL; Antibacterial Activity (MIC) ([19]; unit assumed): 32 µg/mL; Antibacterial Activity (MIC) ([20]; unit assumed): 0.1 µg/mL; Antibacterial Activity (MIC) ([21]; unit assumed): 0.25 µg/mL; Antibacterial Activity (MIC) ([22]; unit assumed): 0.5 µg/mL; Antibacterial Activity (MIC) ([23]; unit assumed): 0.78 µg/mL |
